The text below walks through data of article PMC9413201, “Covalent Proteomimetic Inhibitor of the Bacterial FtsQB Divisome Complex” (Journal of the American Chemical Society, 2022).

Numbered stars: 1 amine (or outer) side, 2 acyl side, 3 side chain; on linkers, the order of the positions; unused ones are H or OH. Bridge positions count the residues as written; N and C are the ends. Square brackets hold non-standard residues; d marks the D form. Peptide text beside a SMILES is read from it. * marks the point of attachment. X1 = O=C([C@H](CCCCCC=[*:3])N[*:1])[*:2]; Nle = CCCC[C@H](N)C(=O)O; BrAc = O=C(CBr)*

The subject of experiment [1] is E. coli lptD4213 (imp) cells. Kind of experiment: Microscopy and morphology assay (cell length). Particulars: 17fα 100 μM. It is filed as cell-based. The protocol: 1.8 Microscopy and morphology assay
Morphology assays were executed to assess the physiological change of E.coli cells upon exposure to different peptides. All steps in this protocol were performed under sterile conditions. For each assay, 20 mL of fresh MOPS medium was prepared (40 mM MOPS, 4 mM tricine, 0.01 mM FeSO-4, 9.5 mM NH4Cl, 0.276 mM K2SO4, 0.5 […]
The next day, the overnight culture […]
was diluted to an OD600 of 0.1. […]
min, after which the supernatant was discarded.
The frozen samples were thawed and 3 μL of […]
morphology of the cells was investigated. […]
accessed on February 2020).
The FtsQ(50˗276) stock solution was diluted to
NH4HCO3 (pH 7.6), 150 mM NaCl).
The gel was placed in the container
Colloidal Coomassie staining solution […]
was washed 3x for 30 min with water.
The gel pieces were washed with 200 μL water by vortex mixing for 30 s. Then the water was discarded. The gel pieces were then washed with […]
discarded and the procedure repeated once.
The supernatants were discarded and 200 μL of 100 %
ACN added, mixed and incubated for 30 s. […] They were then

In experiment [2] the test system is E. coli 87. It is filed as cell-based, Escherichia coli. The protocol:
1.11 Checkerboard synergy assay
As described by Hsieh et al.,6 two-fold dilution series of cationic peptides were made in polypropylene microtiter plates (Ratiolab, L6018123, Dreieich, Germany) in 50 μL volume of MOPS medium/2% DMSO. Primary clinical isolates of Escherichia coli 87 were provided by Dr. Karin van Dijk, Amsterdam UMC. In a similar manner, two-fold dilution series of 17fα were made in polystyrene microtiter plates (Costar, REF3779, Corning NY, United States) in 70 μL volume of MOPS medium. Then, 50 μL of the 17fα series was transferred to the L8S1 containing polypropylene plate, resulting in a checkerboard titration of a L8S1 on the vertical axis and an 17fα on the horizontal axis. Mid-log phase cultures were diluted to OD600 0.1 and 10 μL culture was added to each well of the microtiter plate, resulting in a total volume of 110 μL and an OD600 of ~0.01 ([…]), and the OD600 was measured every 15 min for 12 h using the microplate reader. First, the MIC values of the compounds alone were determined as described previously. Similarly, the MIC values of the compound combination were determined (the fractional inhibitory concentrations (FIC))6. With these MIC values and FIC values, the fractional inhibitory concentration index (FICindex) was calculated as follows:
FIC = FICantibiotic + FICpeptide (1) […]

The test system of experiment [3] is E. coli 87. As to the kind of experiment: Zebrafish larvae infection model (E. coli 87 expressing mScarlet). It counts as in vivo, zebrafish (Danio rerio) larvae. As to conditions: L8S1 3.125 μM, 17fα 70 μM, 15 zebrafish per condition. As to the method:
1.13 Microinjection of zebrafish larvae with E.coli 87 expressing mScarlet Transparent Casper zebrafish (Danio rerio) larvae were infected and treated according to protocols described by Van der Sar et al. and Bernard et al..7,8 In brief, zebrafish larvae collected from a laboratory-breeding colony kept at 24 °C and a 12:12 h dark/light regime. Larvae were selected based on morphology according to hours post fertilization (hpf) and kept at 28 °C. All protocols followed the international guidelines on the protection of animals used for scientific purposes specified by the EU Directive 2010/63/EU, which allows zebrafish larvae to be used up to the moment of free-living (5–7 dpf). Larvae were dechorionated at 28 hpf and anaesthetized in 0.2% tricaine methanesulfonate (MS222, Fluka A-5040). Larvae were individually infected with 1 nL, containing approximately 150-200 CFU ([…]), of mScarlet expressing clinical isolate E. coli 87 via microinjection of the caudal vein as described previously.9 One hour post infection, larvae were treated with L8S1, 17fα or a combination of the two via another microinjection of 1 nL in the caudal vein. To correct dilution of the treatment upon injection in the vein (1 nL in 250 nL zebrafish larvae volume), treatments were diluted in 0.1% phenol red (Sigma-Aldrich, p-0290) in phosphate buffered saline (PBS) to 250x the concentration as tested in vitro. Zebrafish larvae were kept at 30 °C throughout the experiment and survival of the larvae, based on heartbeat, was determined every 24 h for 2 d. Moreover, 18 h post infection larvae were anaesthetized using MS222 and bacterial load was determined using an Olympus IX83 fluorescence microscope (4x objective magnification, Hamamatsu ORCA-Flash 4.0 camera) at specific wavelength for detection of red fluorescence (excitation/emission, 580/610 nm). Obtained images were analyzed using CellProfiler 3.19 (Broad Institute, Cambridge, MA, USA) with a custom-made automated analysis pipeline to count and quantify pixel intensity within the larvae. Integrated red fluorescence intensity per larvae was used as a quantification of bacterial burden.

In the case of `CCCC[C@@H]1NC(=O)[C@H](CO)NC(=O)[C@H](CC(C)C)NC(=O)[C@H](CCC(=O)O)NC(=O)[C@H](CC(N)=O)NC(=O)[C@@H](NC(=O)[C@H](C)NC(C)=O)CCCCCC=CCCCCC[C@@H](C(=O)N[C@@H](CCCCNC(=O)CBr)C(=O)N[C@@H](Cc2ccccc2)C(=O)N[C@@H](Cc2ccc(O)cc2)C(=O)N[C@@H](CCCNC(=N)N)C(=O)N[C@@H](CC(C)C)C(N)=O)NC(=O)CNC(=O)[C@@H]2CCCN2C(=O)[C@H](CCCNC(=N)N)NC(=O)[C@H]([C@@H](C)O)NC1=O` [17fα] (Ac-A[X1]NELS[Nle]TRPG[X1]K(BrAc)FYRL-NH2; staple 2-12), in experiment [1] (1 h), the “cell length median (1h)” value worked out at 4.7 μm. In experiment [1] (1 h, phase contrast microscopy, ImageJ/ObjectJ), the “cell length mean (1h)” value is listed as 5.3 μm. For the same compound, in experiment [1] (6 h), the “cell length mean (6h)” value amounted to 12.4 μm and the “cell length median (6h)” value was determined as 11.3 μm. Besides, the “FICindex (fractional inhibitory concentration index)” value in experiment [2] (17fα in combination with L8S1, checkerboard synergy assay, OD600 after 12 h, MIC = 90% growth inhibition, from averages of MICs (L8S1 n = 3, 17fα n = 5), ≤ 0.5 synergistic) is 0.33. Further, the “inhibitor concentration required for growth inhibition” value in experiment [2] (clinical multidrug-resistant E. coli 87, MOPS medium, OD600) is over 100 µM. For the same compound, in experiment [3] (infected with E. coli 87 (189 CFU), treated 1 h post infection by microinjection, survival by heartbeat, n = 4 replicates, SD), the “Survival rate of zebrafish larvae after 24 h (mean ± SD)” value amounted to 20.0 ±16.3. Moreover, the “Survival rate of zebrafish larvae after 24 h, replicate #1” value in experiment [3] (replicate #1, E. coli 87 (189 CFU)) is recorded as 0. Also, the “Survival rate of zebrafish larvae after 24 h, replicate #2” value in experiment [3] (replicate #2, E. coli 87 (189 CFU)) was found to be 40. For the same compound, the “Survival rate of zebrafish larvae after 24 h, replicate #3” value in experiment [3] (replicate #3, E. coli 87 (189 CFU)) turned out to be 20. Also, the “Survival rate of zebrafish larvae after 24 h, replicate #4” value in experiment [3] (replicate #4, E. coli 87 (189 CFU)) was found to be 20.
